pIC50: −log10 of the molar value.
Columns and labels:
human renal renin = molecular target: T1, human renal renin (Homo sapiens, UniProt P00797); assay: In vitro inhibition of human renal renin (angiotensin I formation measured by radioimmunoassay); format: biochemical; conditions: human renal renin with human angiotensinogen, 37 degrees C., pH 6.5
T1 construct: human renal renin, free from acid proteolytic activity; from tissue; host or cells: human kidney ('renal')
T1 sequence (P00797 67-406): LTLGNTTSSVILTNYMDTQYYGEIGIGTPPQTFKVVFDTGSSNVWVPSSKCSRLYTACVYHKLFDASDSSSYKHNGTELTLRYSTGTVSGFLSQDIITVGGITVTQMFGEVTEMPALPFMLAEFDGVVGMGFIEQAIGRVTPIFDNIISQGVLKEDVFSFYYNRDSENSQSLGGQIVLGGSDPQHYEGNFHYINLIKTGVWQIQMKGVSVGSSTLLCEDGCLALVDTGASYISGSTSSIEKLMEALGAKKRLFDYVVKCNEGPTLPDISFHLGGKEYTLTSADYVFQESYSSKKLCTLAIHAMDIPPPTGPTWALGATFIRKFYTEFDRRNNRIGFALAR
Description: At the end of the incubation, the amount of angiotensin I formed is measured by radioimmunoassay and the molar concentration required to cause 50% inhibition, expressed as the IC50 is calculated .

renin = molecular target: T2, renin (Canis lupus familiaris, UniProt Q6DYE7); assay: Plasma renin activity (PRA) in salt-depleted dogs after i.v. or p.o. dosing; format: in vivo, dog; conditions: salt-depleted male beagle dogs; 10 mg/kg i.v. (in D5W) or 10 mg/kg p.o. (in methylcellulose); FIG. 1B
T2 construct: from tissue; host or cells: circulating plasma renin of salt-depleted beagle dogs (in vivo)
T2 sequence (Q6DYE7 66-403): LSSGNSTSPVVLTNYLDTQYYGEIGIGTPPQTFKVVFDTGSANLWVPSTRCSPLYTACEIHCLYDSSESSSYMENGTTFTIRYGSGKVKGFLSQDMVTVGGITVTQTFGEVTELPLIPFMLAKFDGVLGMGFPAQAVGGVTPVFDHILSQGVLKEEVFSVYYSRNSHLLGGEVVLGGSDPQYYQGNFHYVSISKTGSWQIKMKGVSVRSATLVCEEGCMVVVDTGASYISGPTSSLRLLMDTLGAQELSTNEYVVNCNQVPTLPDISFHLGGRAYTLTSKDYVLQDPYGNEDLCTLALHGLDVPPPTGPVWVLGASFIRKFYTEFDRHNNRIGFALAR
Description: (§1) Male beagle dogs (8-12 kg, Marshall/Hazelton) were converted to a salt-depleted status by dosing on the three consecutive days prior to the experiment with furosemide (Phoenix Pharmaceuticals, 10 mg/kg i.m.) and by placing them on a low sodium diet (approximately 2-5 meq/day; H/D; Hills Pet Products). Prior to the study, each dog was instrumented with an indwelling catheter ana conditioned to stand calmly in a restraining sling for periods of up to 8 hours. On the morning of the experiment, the arteriai catheter was connected to a Sorenson Transpac II® pressure transducer (Abbott Laboratories). For dogs receiving intravenous (i.v.) doses, a catheter (Abbott; 16 ga Venocath) was introduced in a rear leg saphenous vein by venipuncture. For dogs receiving receiving oral (p.o.) doses by garage, an 18 Fr. suction catheter (Mallinckrodt Critical Care) was used. Data samples of systemic hemodynamic variables were acquired by the MI2 computer at 5 minute intervals beginning 90 minutes prior to administration of the test compound and ending 6 hours after dosing. Arterial blood smaples (3.0 ml) to determine plasma drug concentrations and plasma renin activity (PRA) were taken for i.v. doses at -60, -30, 3, 10, 30, 60, 120, 240 and 360 minutes an for p.o. doses at --60, -30, 15, 30, 60, 90, 120, 180 and 360 minutes relative to the time of test compound administration. […]

[1] = Mean arterial blood pressure in salt-depleted dogs after i.v. or p.o. dosing; format: in vivo, dog; conditions: salt-depleted male beagle dogs; 10 mg/kg i.v. (in D5W) or 10 mg/kg p.o. (in methylcellulose); FIG. 1A
Description: as §1

| pIC50 (human renal renin) | plasma renin activity (PRA) (renin) | SMILES | mean arterial pressure (MAP) [1] |
| --- | --- | --- | --- |
| 9.66 | – | CC(C)C[C@H](O)[C@H](O)[C@H](CC1CCCCC1)NC(=O)[C@H](Cc1cscn1)NC(=O)C(Cc1ccccc1)NS(=O)(=O)N1CCN(C)CC1 (stereo partly shown) [Example 13C] | – |
| 9.52 | – | CC(C)C[C@H](O)[C@H](O)[C@H](CC1CCCCC1)NC(=O)[C@H](Cc1cscn1)NC(=O)[C@H](Cc1ccccc1)CS(=O)(=O)N1CC[N+](C)([O-])CC1 [Example 10B, (2S)-2-Benzyl-3-(1-methyl-1-oxo-piperazin-4-ylsulfonyl)propionyl-(L)-(4Thiazolyl)Ala Amide of (2S,3R,4S)-2-Amino-1-cyclohexyl-3,4-dihydroxy-6-methylheptane] | – |
| – | inhibits renin in vivo | CC(C)C[C@H](O)[C@H](O)[C@H](CC1CCCCC1)NC(=O)[C@H](Cc1cscn1)NC(=O)[C@H](Cc1ccccc1)CS(=O)(=O)N1CCN(C)CC1.CS(=O)(=O)O [Example 17B, (2S)-2-Benzyl-3-(1-methyl-piperazin-4-ylsulfonyl) propionyl-(L)-(4-Thiazolyl)Ala Amide of (2S,3R,4S)-2-Amino-1-cyclohexyl-3,4-dihydroxy-6-methylheptane methanesulfonate salt] | effective for reducing blood pressure |
| 9.55 | – | CC(C)C[C@H](O)[C@H](O)[C@H](CC1CCCCC1)NC(=O)[C@H](Cc1cscn1)NC(=O)[C@H](Cc1ccccc1)CS(=O)(=O)N1CCNC(=O)C1 [Example 11F] | – |
| 9.48 | – | CC(C)C[C@H](O)[C@H](O)[C@H](CC1CCCCC1)NC(=O)[C@H](Cc1cscn1)NC(=O)[C@H](Cc1ccccc1)CS(=O)(=O)N1CCNCC1 [Example 6D, (2S)-2-Benzyl-3-(piperazin-4-ylsulfonyl)propionyl-(L)-(4-Thiazolyl)Ala Amide of (2 S, 3R, 4S)-2-Amin0-1-cyclohexyl-3,4-dihydroxy-6-methylheptane] | – |
| 9.35 | – | CC(C)C[C@H](O)[C@H](O)[C@H](CC1CCCCC1)NC(=O)[C@H](Cc1cscn1)N(C)C(=O)C(CCc1ccccc1)NS(=O)(=O)N1CCN(C)CC1 (stereo partly drawn) [Example 12F, (4-Methylpiperazin-1-yl) sulfonyl-(Phenylmethyl)alanine-N-Methyl-3-(4-thiazolyl)-L-alanine Amide of (2S,3R,4S)-2-Amino-1-cyclohexyl-3,4-dihydroxy-6-methylheptane] | – |

Source: patent US5332742A, “Renin inhibitors” (Abbott Laboratories, priority 1993, dated 1994)
